Assay results: US20240409585A1, “MACROCYCLIC IMMUNOMODULATORS” (priority 2021, published 2024)
Bridge positions count the residues as written; N and C are the ends. Square brackets hold non-standard residues; d marks the D form. Peptide text beside a SMILES is read from it. * marks the point of attachment. ξ: configuration not given here. Tyr(3-NO2) = N[C@@H](Cc1ccc(O)c([N+](=O)[O-])c1)C(=O)O; Phe(4-COOH) = N[C@@H](Cc1ccc(C(=O)O)cc1)C(=O)O; Trp(6-F) = N[C@@H](Cc1c[nH]c2cc(F)ccc12)C(=O)O; Bip = N[C@@H](Cc1ccc(-c2ccccc2)cc1)C(=O)O; Phe(3-OMe) = COc1cccc(C[C@H](N)C(=O)O)c1; Phe(3-F) = N[C@@H](Cc1cccc(F)c1)C(=O)O; Phe(3-Me) = Cc1cccc(C[C@H](N)C(=O)O)c1; d(aThr) = C[C@@H](O)[C@@H](N)C(=O)O; Val(3-OH) = CC(C)(O)[C@H](N)C(=O)O; 4Pal = N[C@@H](Cc1ccncc1)C(=O)O; Cha = N[C@@H](CC1CCCCC1)C(=O)O; Thr(3ξ) = CC(O)[C@H](N)C(=O)O; NMeNle = CCCC[C@H](NC)C(=O)O; Pip = O=C(O)[C@@H]1CCCCN1; Carboxymethyl = O=C(O)C*; NMeA = CN[C@@H](C)C(=O)O; dNMeA = CN[C@H](C)C(=O)O; Dab = NCC[C@H](N)C(=O)O

Molecular target: T1, PE-labeled human PD-L1-Ig binding to Jurkat cell line over-expressing human PD-1 (Jurkat-PD-1) (Homo sapiens, UniProt Q15116)
T1 construct: expressed in transfected cells; host or cells: Jurkat
Assay: Jurkat-PD-1 Cell Binding High-Content Screening Assay (CBA): Method 1
Details: Jurkat-hPD-1 cells, PE-labeled PD-L1-Ig 20 nM final; read-out: Jurkat HPDL1 PD1 IC50 (uM) (Method 1)

T1 sequence (Q15116 25-288): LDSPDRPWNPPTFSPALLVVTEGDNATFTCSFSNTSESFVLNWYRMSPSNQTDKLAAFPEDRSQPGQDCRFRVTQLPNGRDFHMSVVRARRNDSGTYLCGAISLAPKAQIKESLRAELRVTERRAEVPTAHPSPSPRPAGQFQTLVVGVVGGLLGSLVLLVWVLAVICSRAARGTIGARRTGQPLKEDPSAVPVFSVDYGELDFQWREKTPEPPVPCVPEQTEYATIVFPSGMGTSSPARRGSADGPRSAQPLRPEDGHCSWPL

Structure (SMILES) | IC50 [µM]
Cc1cccc(C[C@@H]2NC(=O)[C@H](CC(=O)O)NC(=O)[C@H](Cc3ccc(C(=O)O)cc3)NC(=O)[C@H](Cc3ccc(OCC(=O)O)cc3)NC(=O)CSC[C@@H](C(=O)N[C@@H](C)C(N)=O)NC(=O)[C@H](CO)NC(=O)[C@H](C(C)C)NC(=O)[C@H](CC(C)C)NC(=O)[C@H](CC(N)=O)NC(=O)[C@@H](C)NC(=O)[C@H](C)N(C)C(=O)[C@H](C(C)C)NC(=O)[C@H](Cc3ccc(-c4ccccc4)cc3)NC(=O)[C@H](CC(C)C)NC2=O)c1 [Compound 1579] ({CH2CO}-Y(Carboxymethyl)[Phe(4-COOH)]D[Phe(3-Me)]L[Bip]V[NMeA][dA]NLVSCA-NH2; thioether N-14) | 0.02
CC(C)C[C@@H]1NC(=O)[C@H](CCCNC(=N)N)NC(=O)[C@@H](CC(C)C)NC(=O)[C@H](C)N(C)C(=O)[C@H](CCCNC(=N)N)NC(=O)[C@H](Cc2ccc(-c3ccccc3)cc2)NC(=O)[C@H](C(C)C)NC(=O)[C@H](Cc2cccc(F)c2)NC(=O)[C@H](CC(=O)O)NC(=O)[C@H](Cc2ccc(O)cc2)NC(=O)[C@H](CC(N)=O)NC(=O)CSC[C@@H](C(=O)N[C@@H](C)C(N)=O)NC(=O)[C@H]([C@@H](C)O)NC(=O)[C@H](C(C)C)NC1=O [Compound 1199] ({CH2CO}-NYD[Phe(3-F)]V[Bip]R[NMeA][dL]RLVTCA-NH2; thioether N-14) | 0.45
Cc1cccc(C[C@@H]2NC(=O)[C@H](CC(=O)O)NC(=O)[C@H](Cc3ccc(OCC(=O)O)cc3)NC(=O)[C@H](Cc3ccncc3)NC(=O)CSC[C@@H](C(N)=O)NC(=O)[C@H](CCC(=O)O)NC(=O)[C@H](C(C)C)NC(=O)[C@H](CC3CCCCC3)NC(=O)[C@H](CCN)NC(=O)[C@@H](CC(C)C)NC(=O)[C@H](C)N(C)C(=O)[C@H](Cc3ccc(OCC(=O)O)cc3)NC(=O)[C@H](Cc3ccc(-c4ccccc4)cc3)NC(=O)[C@H](Cc3ccc(OCC(=O)O)cc3)NC2=O)c1 [Compound 1661] ({CH2CO}-[4Pal]Y(Carboxymethyl)D[Phe(3-Me)]Y(Carboxymethyl)[Bip]Y(Carboxymethyl)[NMeA][dL][Dab][Cha]VEC-NH2; thioether N-14) | 0.05
CC(C)C[C@@H]1NC(=O)[C@H](CCCNC(=N)N)NC(=O)[C@@H](Cc2ccccc2)NC(=O)[C@H](C)N(C)C(=O)[C@H](CCCNC(=N)N)NC(=O)[C@H](Cc2ccc(-c3ccccc3)cc2)NC(=O)[C@H](C(C)C)NC(=O)[C@H](Cc2c[nH]c3ccccc23)NC(=O)[C@H](CC(=O)O)NC(=O)[C@H](Cc2ccc(O)c([N+](=O)[O-])c2)NC(=O)[C@H](CC(N)=O)NC(=O)CSC[C@@H](C(=O)N[C@@H](C)C(N)=O)NC(=O)[C@H]([C@@H](C)O)NC(=O)[C@H](C(C)C)NC1=O [Compound 1167] ({CH2CO}-N[Tyr(3-NO2)]DWV[Bip]R[NMeA][dF]RLVTCA-NH2; thioether N-14) | 0.1
CC[C@H](C)[C@@H]1NC(=O)[C@H](Cc2ccc(-c3ccccc3)cc2)NC(=O)[C@H](C(C)C)NC(=O)[C@H](Cc2c[nH]c3ccccc23)NC(=O)[C@H](CC(=O)O)NC(=O)[C@H](Cc2cccc(OC)c2)NC(=O)[C@H](Cc2ccncc2)NC(=O)CSC[C@@H](C(=O)N[C@@H](C)C(N)=O)NC(=O)[C@H]([C@@H](C)O)NC(=O)[C@H](C(C)C)NC(=O)[C@H](CC(C)C)NC(=O)[C@H](CCN)NC(=O)[C@@H](CC(C)C)NC(=O)[C@H](C)N(C)C1=O [Compound 1406] ({CH2CO}-[4Pal][Phe(3-OMe)]DWV[Bip]I[NMeA][dL][Dab]LVTCA-NH2; thioether N-14) | 0.02
CC(C)C[C@@H]1NC(=O)[C@H](CCCNC(=N)N)NC(=O)[C@@H](CC(C)C)NC(=O)[C@H](C)N(C)C(=O)[C@H](CCCNC(=N)N)NC(=O)[C@H](Cc2ccc(-c3ccccc3)cc2)NC(=O)[C@H](C(C)C)NC(=O)[C@H](Cc2c[nH]c3cc(F)ccc23)NC(=O)[C@H](CC(=O)O)NC(=O)[C@H](Cc2ccc(O)cc2)NC(=O)[C@H](Cc2ccccc2)NC(=O)CSC[C@@H](C(=O)N[C@@H](C)C(N)=O)NC(=O)[C@H]([C@@H](C)O)NC(=O)[C@H](C(C)C)NC1=O [Compound 1079] ({CH2CO}-FYD[Trp(6-F)]V[Bip]R[NMeA][dL]RLVTCA-NH2; thioether N-14) | 0.25

Further lines, results first:

IC50 [µM] | Structure (SMILES)
0.03 | CC(C)C[C@@H]1NC(=O)[C@H](Cc2c[nH]c3ccccc23)NC(=O)[C@H](CC(=O)O)NC(=O)[C@H](Cc2ccc(O)cc2)NC(=O)[C@H](Cc2ccccc2)NC(=O)CSC[C@@H](C(=O)NCC(N)=O)NC(=O)[C@H](CO)NC(=O)[C@H](C(C)C)NC(=O)[C@H](CC(C)C)NC(=O)[C@H](CC(N)=O)NC(=O)[C@@H]([C@@H](C)O)NC(=O)[C@H](C)N(C)C(=O)[C@H](C(C)C)NC(=O)[C@H](Cc2ccc(-c3ccccc3)cc2)NC1=O [Compound 1752] ({CH2CO}-FYDWL[Bip]V[NMeA][d(aThr)]NLVSCG-NH2; thioether N-14)
0.04 | CC(C)C[C@H]1NC(=O)[C@@H]2CCCCN2C(=O)[C@H](Cc2c[nH]cn2)NC(=O)[C@H](Cc2ccc(-c3ccccc3)cc2)NC(=O)[C@H](C(C)C)NC(=O)[C@H](Cc2c[nH]c3ccccc23)NC(=O)[C@H](CC(=O)O)NC(=O)[C@H](Cc2ccc(C(=O)O)cc2)NC(=O)[C@H](Cc2ccncc2)NC(=O)CSC[C@@H](C(=O)N[C@H](C)C(N)=O)NC(=O)[C@H](CO)NC(=O)[C@H](C(C)C)NC(=O)[C@H](CC2CCCCC2)NC(=O)[C@H](CCN)NC1=O [Compound 2125] ({CH2CO}-[4Pal][Phe(4-COOH)]DWV[Bip]H[Pip][dL][Dab][Cha]VSC[dA]-NH2; thioether N-14)
0.24 | CC(C)C[C@@H]1NC(=O)[C@H](Cc2c[nH]c3ccccc23)NC(=O)[C@H](CC(=O)O)NC(=O)[C@H](Cc2ccc(O)cc2)NC(=O)[C@H](Cc2ccccc2)NC(=O)CSC[C@@H](C(=O)NCC(N)=O)NC(=O)[C@H](CO)NC(=O)[C@H](C(C)C)NC(=O)[C@H](CC(C)C)NC(=O)[C@H](CC(N)=O)NC(=O)CNC(=O)[C@@H](C)N(C)C(=O)[C@H](C(C)C)NC(=O)[C@H](Cc2ccc(-c3ccccc3)cc2)NC1=O [Compound 1721] ({CH2CO}-FYDWL[Bip]V[dNMeA]GNLVSCG-NH2; thioether N-14)
0.04 | CCCC[C@H]1C(=O)N[C@@H](Cc2ccc(C(=O)O)cc2)C(=O)N[C@@H](CC(=O)O)C(=O)N[C@@H](Cc2c[nH]c3ccccc23)C(=O)N[C@@H](C(C)C)C(=O)N[C@@H](Cc2ccc(-c3ccccc3)cc2)C(=O)N[C@@H](C(C)O)C(=O)N(C)[C@@H](C)C(=O)N[C@H](CC(C)C)C(=O)N[C@@H](CCN)C(=O)N[C@@H](CC2CCCCC2)C(=O)N[C@@H](C(C)C)C(=O)N[C@@H](C(C)O)C(=O)N[C@H](C(=O)N[C@@H](CCN)C(N)=O)CSCC(=O)N1C (stereo partly drawn) [Compound 2206] ({CH2CO}-[NMeNle][Phe(4-COOH)]DWV[Bip][Thr(3ξ)][NMeA][dL][Dab][Cha]V[Thr(3ξ)]C[Dab]-NH2; thioether N-14)
0.01 | CC[C@H](C)[C@@H]1NC(=O)[C@H](Cc2ccc(-c3ccccc3)cc2)NC(=O)[C@H](C(C)C)NC(=O)[C@H](Cc2cccc(C)c2)NC(=O)[C@H](CC(=O)O)NC(=O)[C@H](Cc2ccc(O)cc2)NC(=O)[C@H](CC(N)=O)NC(=O)CSC[C@@H](C(=O)N[C@@H](CCN)C(N)=O)NC(=O)[C@H]([C@@H](C)O)NC(=O)[C@H](C(C)(C)O)NC(=O)[C@H](CC(C)C)NC(=O)[C@H](CCN)NC(=O)[C@@H](CC(C)C)NC(=O)[C@H](C)N(C)C1=O [Compound 1684] ({CH2CO}-NYD[Phe(3-Me)]V[Bip]I[NMeA][dL][Dab]L[Val(3-OH)]TC[Dab]-NH2; thioether N-14)
